Usually LC50 stands for the concentration lethal to half of the exposed cells or organisms. For orientation: NOAEL means the highest dose or exposure tested at which no adverse effect was seen. What is called LOAEL is the lowest dose or exposure tested at which an adverse effect was seen.

One data set relates to Folsomia candida. The settings on record: chronic/long-term; mortality.
A further data set deals with Daphnia magna. To be noted: chronic/long-term; duration: 21 days; reproduction.
The subject of another data set is Apis mellifera. The settings on record: acute, duration: 48 hours, mortality.
A further data set deals with Neomysis kadiakensis. To be noted: acute; duration: 48 hours; mortality.
A further data set has as its system Tagia sp. The settings on record: chronic/long-term; duration: 56 days; growth.
Another data set deals with Canidae. To be noted: subchronic; duration: 90 days; dermal; Dog Other; organ weight.
A further data set deals with Typhlodromus pyri. Briefly: LR50; higher = less toxic. To be noted: not reported; reproduction.
For another data set, the system named is Aphidius rhopalosiphi. Briefly: LR50; higher = less toxic. The settings on record: not reported; mortality.

SMILES strings stand for the structures. In brackets after ≈: the same amount, converted by molar mass. Where only a bound is given, the exact number is not on record here.

As to `COC[C@H](C)N(C(=O)CCl)c1c(C)csc1C` [Dimethenamid-P], the NOEC in the data set on Folsomia candida came out at 12.5 mg/kg; in the data set on Oncorhynchus mykiss (chronic/long-term, growth), 0.12 mg/L; in the data set with Daphnia magna, 0.68 mg/L; in the data set with Tagia sp., 25.4 mg/kg. For the same compound, the LC50 worked out at 2.6 µg/mL (≈ 9.43 µM) in the data set on Oncorhynchus mykiss (acute, duration: 96 hours, mortality) and 3.2 µg/mL (≈ 11.6 µM) in the data set on Neomysis kadiakensis. Besides, the LD50 was found to be 1070 mg/kg-day in the data set with Colinus virginianus (acute, oral, mortality); 93.8 µg/piece in the data set with Apis mellifera (dermal); 119 µg/piece in the data set with Apis mellifera (oral, unspecified); 466 mg/kg-day in the data set on Rattus norvegicus (acute, oral, mortality). In addition, in the data set on Colinus virginianus (chronic, mortality), the LEL is 107 mg/kg-day. Besides, the NOAEL came to 114 mg/kg-day with Colinus virginianus (reproduction developmental); 5 mg/kg-day in the data set with Rattus norvegicus (chronic, duration: 2 years, organ weight); 25 mg/kg-day in the data set on Rattus norvegicus (developmental, development); 4.3 mg/kg-day in the data set on Canidae. Also, in the data set with Rattus norvegicus (reproduction developmental, food consumption), the LOAEL was found to be 25 mg/kg-day. In addition, the figures for the LR50 with Typhlodromus pyri and in the data set with Aphidius rhopalosiphi were greater than 1.4e+06 mL/ha and 66.3 mL/ha, respectively.

Values taken from EPA's ToxValDB 9.5 (doi:10.2903/j.efsa.2018.5211).
